Test results reported in patent US7112594B2, “Fused bicyclic amide compounds and medicinal use thereof” (Mitsubishi Pharma Corporation, priority 2000, dated 2006).

What was measured:
[1] = test system: type II collagen induced arthritis; assay: Type II collagen induced arthritis in DBA/1J mouse; format: in vivo; details: repeated oral administration
rat lymphocytes = assay: Proliferation of rat lymphocytes stimulated by PMA and calcium ionophore A23187 (tritium thymidine uptake); format: cell-based; details: Lymphocyte, PMA 10 ng/ml and A23187 100 ng/ml
Procedure: An RPMI1640 medium (Sigma) was used as a medium, to which kanamycin sulfate (60 μg/ml) and penicillin G potassium (100 units/ml) were added, and then 10% of fetal calf serum (FCS, Gibco) inactivated at 56° C. for 30 min was added and used for the test. The compound of the present invention or a pharmaceutically acceptable salt thereof was dissolved in dimethyl sulfoxide and diluted with the 10% FCS-containing RPMI1640 medium to a desired concentration and used for the test.
The spleens were aseptically removed from 6-week-old male F344 rats or LEW rats (Charles River Japan, Inc.) and minced with tweezers in RPMI1640 medium and then prepared into a single cell suspension of splenic cell. After hematolysis by a hypotonicity treatment using a 9:1 mixed solution of 0.83% aqueous ammonium chloride solution and Tris-HCl buffer (pH 7.65), the suspension was passed through a nylon wool column to give nylon non-adhesive T cell concentration fraction for use. The cell suspension prepared using 10% FCS-containing RPMI1640 medium was added to a flat 96 well microtest plate at 5×10^5 cells/well. The compound of the present invention or a pharmaceutically acceptable salt thereof at a concentration of 0.0001-100 μM, 10 ng/ml of PMA and 100 ng/ml of A23187 were added and the mixture was cultured at 37° C., 5% carbon dioxide and 95% air for 44 hr. After the completion of the culture, tritium thymidine (18.5 kBq/well, specific activity: 185 GBq/mmol, Amersham Pharmacia Biotech) was added and the mixture was cultured at 37° C., 5% carbon dioxide, 95% air for further 4 hr. Then using a cell harvester, the cells were recovered on a glass fiber filter, and using a scintillation counter (MicroBeta 1460) for plate, the radioactivity taken into the cells was measured, and the proliferation of rat lymphocyte induced by stimulation with PMA and A23187 was measured. To be specific, the inhibition rate was calculated by the following formula based on average tritium thymidine uptake (cpm) by lymphocyte in the wells to which various concentrations of the compound of the present invention were added. [formula]
Based on the dose-response curve obtained by plotting average value of tritium thymidine uptake (cpm) or inhibition rate in the longitudinal axis and concentration in the horizontal axis, the concentration (IC50) of the compound that inhibits the level to 50% of the value of the control group was determined by nonlinear regression.

| Structure (SMILES) | improvement of severity of developed arthritis, swelling of the limbs or destruction of joint ([1]; 10 mg/kg body weight) | death ([1]; 30 mg/kg body weight) | IC50 (rat lymphocytes) [nM] |
| --- | --- | --- | --- |
| Cc1c(C(=O)Nc2ccc(C(F)(F)F)cc2)cnn1-c1ccc(F)cc1 [1-(4-fluorophenyl)-N-(4-trifluoromethylphenyl)-5-methylpyrazole-4-carboxamide] | did not improve | confirmed death |  |
| Cc1[nH]c2ccc(F)cc2c1C(=O)Nc1ccc(Oc2ccccc2)c(C#N)c1 [Example 6, N-(3-cyano-4-phenoxyphenyl)-5-fluoro-2-methyl-1H-indole-3-carboxamide] |  |  | 390 |
| N#Cc1cc(NC(=O)c2cc3ccccc3s2)ccc1N1CCN(CCO)CC1 [Example 11, N-[3-cyano-4-(4-(2-hydroxyethyl)piperazin-1-yl)phenyl]benzo[b]thiophene-2-carboxamide] |  |  | 1500 |
| N#Cc1cc(NC(=O)c2cc3ccccc3o2)ccc1N1CCC(CCO)CC1 [Example 20, N-{3-cyano-4-[4-(2-hydroxyethyl)piperidin-1-yl]phenyl}benzo[b]furan-2-carboxamide] |  |  | 230 |
| CC(C)c1ccc2c(O)c(C(=O)Nc3ccc(OCC(C)(C)C)c(C#N)c3)sc2n1 [Example 28, N-(3-cyano-4-neopentyloxyphenyl)-3-hydroxy-6-isopropylthieno[2,3-b]pyridine-2-carboxamide] |  |  | 2000 |
